# Patent US20130005670A1, “COMBINATION COMPOSITION, COMPRISING AS ACTIVE INGREDIENTS L-CARNITlNE OR PROPIONYL L-CARNITlNE, FOR THE PREVENTION OR TREATMENT OF CHRONIC VENOUS INSUFFICIENCY” (SIGMA-TAU INDUSTRIE FARMACEUTICHE RIUNITE S.P.A., priority 2010, published 2013)
# Experiments:
# [1] = tested on: aortic rings precontracted by phenylephrine; assay: relaxant effect on aortic rings precontracted by phenylephrine; design: species or system spontaneously hypertensive rats; settings: 100 micro-molar each component, final concentration in organ chamber; SHR aortic rings precontracted by phenylephrine (1 micromolar); n=8
# Method: Relaxant Effect on Aortic Rings of the Compounds Tested. The objective of this study was to investigate the vasoarelaxation effects of the compositions of the invention using isolated aorta from spontaneously hypertensive rats. The compounds tested were used at a concentration expressed as final concentration in the organ chamber. Male spontaneously hypertensive rats (SHR) 10-12 weeks old, weighing 250-300 g, were housed at 24±2° C. with 60±20% relative humidity, on a 12-h light-dark cycle. Rats were given free access to a diet of standard food and water. All experiments were performed according to the guidelines for the ethical treatment of animals of the European Union. The rats were killed by cervical dislocation and the aortae were rapidly dissected. The descending thoracic aorta was placed in a modified Krebs-Henseleit solution (PSS) containing (mM): NaCl 118, KCl 4.75, NaHCO3 25, MgSO4 1.2, CaCl2 1.8, KH2PO4 1.2 and glucose 11. After excess fat and connective tissue were removed, the aortae were cut into 2-3-mm rings. Aortic rings were mounted under a basal tension of 2 g in 20 mL organ baths containing PSS and attached to an isometric transducer (Harvard UF-1); the signal was recorded by a Powerlab data acquisition system (AD-Instruments). The tissue bath was maintained at 37° C. and bubbled with a 95% O2 and 5% CO2 gas mixture. The relaxant effect of compounds tested was assessed by adding the compound to aortic rings precontracted by phenylephrine (1 micromolar). After the aortae were contracted with phenylephrine and when the contractile response was reached, the test compound was added to the bath. All the results were expressed as a percentage of the maximal contraction of phenylephrine-induced responses. Results are expressed as percentages from the initial precontraction level. The significance was calculated on the actual contraction values means±SE (n=8 aorta preparations per group). Eight preparations were studied from a single aorta. The Student t-test was used as the comparison test for statistical analysis.
# [2] = tested on: croton oil-induced hemorrhoid model in rats; assay: croton oil-induced hemorrhoid model in rats (recto-anus coefficient); assay type: in vivo, rat; settings: 24 hours after induction with croton oil (3%); oral once per day for five days; 20 mg/kg propionyl L-carnitine or L-carnitine, 30 mg/kg troxerutine, diosmine or hesperidine; RAC = weight of recto-anus (mg)/body weight (g); n = 5 rats
# Method: Reduction of the Swelling of the Recto-Anus, in Croton Oil-Induced Hemorrhoid Model in Rats.
# Male SD rats (6 weeks old, approximately 140 g) were purchased from Harlan Sprague Dawley and allowed to acclimate for 1 week. The rats were maintained in a pathogen-free facility in accordance with the National Research Council of Laboratory Animal care and use guidelines. Each experiment was preformed with age-matched rats 7-8 weeks old. The croton oil-induced hemorrhoid model in rats was performed according to the method published by Nishiki (Nishiki et al. (1988) Folia Pharmacology Japan 92:215-225; Nishiki et al. (1988) Folia Pharmacol. Japan 92:227-240). Briefly, a cotton swab with a diameter of 4 mm soaked with 0.16 mL of inducer (deionized water: pyridine: ethyl ether: 6% croton oil/ethyl ether (1:4:5:10) was applied to the rat's anus for 12 seconds. The final concentration of croton oil was 3%. The edema developed linearly until 7-8 hours after application and the severity of the edema was sustained for more than 24 hours. Twenty-four hours later, recto-anus tissue (approx. 10 mm long) was isolated after the rats were euthanized. The weights of rat body and recto-anus were measured. The recto-anus coefficient (RAC) was calculated using the formula: weight of recto-anus (mg)/body weight (g).
# The compounds of the invention were administered orally suspended in saline (1 mL) once per day for five days. Last treatment with the compounds of the invention was made the day of induction of oedema with croton oil.
# The compounds of the invention were administered alone or in combination at the following doses: 20 mg/kg propionyl L-carnitine or L-carnitine; 30 mg/kg troxerutine, diosmine or hesperidine.
# Twenty-four hours after hemorrhoid induction with croton oil the RAC of rats was determined.
Compound,% RELAXATION [1] [%],RAC (recto-anus coefficient) [2]
"COc1ccc(-c2cc(=O)c3c(O)cc(O[C@@H]4O[C@H](CO[C@@H]5O[C@@H](C)[C@H](O)[C@@H](O)[C@H]5O)[C@@H](O)[C@H](O)[C@H]4O)cc3o2)cc1O [Diosmine, diosmine]",10,2.02
"COc1ccc([C@@H]2CC(=O)c3c(O)cc(O[C@@H]4O[C@H](CO[C@@H]5O[C@@H](C)[C@H](O)[C@@H](O)[C@H]5O)[C@@H](O)[C@H](O)[C@H]4O)cc3O2)cc1O [Hesperidine, hesperidine]",9,2.07
C[N+](C)(C)C[C@H](O)CC(=O)[O-] [L-carnitine],25,1.99
"CCC(=O)O[C@H](CC(=O)[O-])C[N+](C)(C)C [Propionyl L-carnitine, propionyl L-carnitine]",28,1.96
C[C@@H]1O[C@@H](OC[C@H]2O[C@@H](Oc3c(-c4ccc(OCCO)c(OCCO)c4)oc4cc(OCCO)cc(O)c4c3=O)[C@H](O)[C@@H](O)[C@@H]2O)[C@H](O)[C@H](O)[C@H]1O [Troxerutine],10,2.11
